Experimental data as given in patent publication US20230119324A1, “EGFR INHIBITION TRIGGERS AN ADAPTIVE RESPONSE BY CO-OPTING ANTIVIRAL SIGNALING PATHWAYS IN LUNG CANCER” (The United States Government as represented by the …, priority 2020, published 2023).

What was measured:
[1] = system: IRF3; assay: ISRE / IFI27-ISRE luciferase reporter assay; format: cell-based; conditions: EGFR mutant cells; erlotinib 0.1 µM and 1 µM BX795, 24 h
Method: (§1) Cells were plated in 48 well dishes followed by plasmid transfection with two reporters detecting activation of IRF3, ISRE-luciferase reporter or IFI27-ISRE luciferase reporter^22, using lipofectamine 2000. A dual-luciferase reporter assay system was used according to the instructions of the manufacturer (Promega, Madison WI). Firefly luciferase activity was measured in the POLARstar Omega Microplate Reader (BMG LABTECH) and normalized based on Renilla luciferase activity. Three independent experiments were done in triplicate.

[2] = system: Type I interferons (IFNα1, IFNβ1); assay: qPCR and ELISA for Type I interferons in NSCLC cell lines; format: cell-based, human; conditions: BX795 1 µM, BMS-345541 0.1 µM
Method: Total RNA was isolated by TRIzol Reagent (Fisher Scientific). cDNA Reverse Transcription was performed by using High-Capacity cDNA Reverse Transcription Kit (Applied Biosystems). PCR primers were synthesized by IDT (Coralville, IA). Each PCR reaction was carried out in triplicate in a 20 µl volume using SYBR Green Master Mix (Applied Biosystems) for 15 minutes at 95° C. for initial denaturing, followed by 40 cycles of 95° C. for 15 s and 60° C. for 60 s in ViiA 7 Real-Time PCR System (Applied Biosystems). At least three independent experiments were done. Values for each gene were normalized to expression levels of ACTB (β-Actin) mRNA. Primer sequences were as follows.
To detect IFNα and IFNβ levels in medium, cells were cultured in serum free medium and treated with indicated drugs for 48 hours. Supernatant was then collected and concentrated using a Pierce protein concentrator (Thermo-Fisher). To test IFNα and IFNβ in lysates, cell and tumor lysates were extracted using RIPA buffer. Total protein concentrations were determined by Pierce BCA Protein Assay Kit (Fisher Scientific). Then, the levels of IFNα and IFNβ protein were measured by ELISA using human IFNα ELISA kit (41100) and human IFNβ ELISA kit (41440), from PBL Assay Science (Piscataway, NJ) according to the manufacturer’s protocol.
ATCB (β-Actin) expression was the loading control.
IFNα1 and IFNβ1 mRNA levels were detected by qPCR with β-Actin as the loading control.
IFNα1 and IFNβ1 mRNA levels were detected by qPCR. β-Actin was used as the loading control. Data refers to mean ± S.E.M, n=3 independent repeated experiments. One-way ANOVA with Dunnett’s test was used to determine adjusted p value for comparison between untreated and each treated sample. *: p<0.05, **: p<0.01, ***: p<0.001. H1666 is reported to harbor IFNA1 homodeletion in COSMIC (Catalogue Of Somatic Mutations In Cancer)-v90 http://cancer.sanger.ac.uk/cosmic (Updated 5 Sep. 2019), also in Data from a CPRIT (Cancer Prevention & Research Institute of Texas)-funded NGS (next generation sequencing) project by Dr. John Minna, UT Southwestern Medical Center, and Data from Dr. Adi Gazdar, UT Southwestern Medical Center. All other cell lines used in this research were searched on those databases above and confirmed to harbor neither IFNA1 nor IFNB1 homodeletion. Western blots are representative of 3 independent experiments with similar results. Cropped images are shown. Uncropped Western blot images are shown in Source Data.
The protein concentration of IFNα1 and IFNβ1 in cell lysates were measured by ELISA. […]
IFNA1 andIFNB1 mRNA levels were tested by qPCR. IκBα-DN overexpression was detected by Western blot. […]
Referring to FIGS. 14T-U, H1975 cells were treated with 0.1 µM Afatinib for indicated time points, IFNA1 and IFNB1 mRNA levels were detected by qPCR.

[3] = system: TBK1 and IRF3; assay: Western blot for TBK1 and IRF3 activation in NSCLC cell lines; format: cell-based; conditions: EGFR mutant cells; 0.1 µM erlotinib and 1 µM BX795, 24 hours
Method: (§2) Western blot and immunoprecipitation were performed according to standard protocols. Western blot results are representative of at least 3 independent experiments. EGFR (06-847) antibody was from EMD Millipore (Billerica, MA); p-EGFR (Tyr1068) (2236), p-TBK1 (Ser172) (5483), TBK1 (3504), IKKε (2905), IRF3 (11904), K63-Ub (12930), RIG-I (3743), STAT1 (9172), p-STAT1 (Tyr701) (9167), AhR (83200), LAMIN A/C (4777), STING (3337), p-STING (Ser366) (19781), PD1 (86163), PD-L1 (13684), PD-L2 (82723) and IκBα (4814) antibodies were from Cell Signaling Technology (Danvers, MA); IFNAR1 (sc-7391), IFNGR1 (sc-12755), TNFR1 (sc-8346), and β-Actin (sc-47778) were from Santa Cruz Biotechnology (Dallas, TX); TRIM32 (Mab6515) antibody was from R&D (Minneapolis, MN); p-IRF3 (Ser386) (ab76493) antibody was from Abcam (Cambridge, MA).

[4] = system: EGFR mutant NSCLC cell lines; assay: AlamarBlue cell viability assay, EGFR mutant NSCLC cell lines; format: cell-based; conditions: for effect on pro-survival effect of exogenous Type I IFNs under EGFR inhibition: EGFR mutant lines, 50 ng/mL IFNα1 or IFNβ1, 72 h, Etanercept 50 µg/mL, BMS-345541 0.1 µM
Method: (§3) Cell viability assays were conducted with AlamarBlue Cell Viability Reagent from ThermoFisher (Waltham, MA), following the manufacturer’s protocol. Cells were cultured in Coming (Corning, NY) 96-well black plates with clear bottom and detected by the POLARstar Omega Microplate Reader (BMG LABTECH) (excitation at 544 nm and emission at 590 nm). At least 3 independent experiments were done.

[5] = system: NF-κB; assay: NF-κB luciferase reporter assay, TNF stimulation; format: cell-based; conditions: EGFR mutant lines; 10 µg/mL Etanercept 1 h, then 10 ng/mL TNF 24 h
Method: as §1
Referring to FIG. 16G and FIG. 16H, EGFR mutant lines were transfected with an NF-κB reporter for 48 h, followed by 10 µg/mL Etanercept for 1 h and then 10 ng/mL TNF for 24 h, followed by a luciferase assay or Western blot.

[6] = system: H1975 cells; assay: AlamarBlue assay in H1975 cells; format: cell-based; conditions: 10 µg/mL Anifrolumab with 0.1 µM Afatinib, 72 hours
Method: as §3
(§4) IFNAR1 siRNA was confirmed by Western blot.

[7] = system: STAT1; assay: Western blot for total and phosphorylated STAT1; format: cell-based; conditions: 0.1 or 1 µM erlotinib with 10 µg/mL Anifrolumab
Method: as §2
Cell lysates were collected and subjected to Western blot for detection of total and phosphorylated STAT1 expression. β-Actin was the loading control.

[8] = system: EGFRwt NSCLC cell lines; assay: AlamarBlue cell viability assay, EGFRwt NSCLC cell lines; format: cell-based; conditions: 72 h
Method: as §3
Western blot confirming the silencing of IFNAR1.
Data represents mean ± S.E.M. of three independent repeated experiments. *: p<0.05, **: p<0.01, ***: p<0.001, by two-way ANOVA adjusted by Bonferroni’s correction. Western blots are representative of 3 independent experiments with similar results. Cropped images are shown. Uncropped Western blot images are shown in Source Data.

[9] = system: PD-L1; assay: Western blot for PD-L1 in NSCLC cell lines; format: cell-based; conditions: HCC827 and H3255; 100 or 10 nM erlotinib 24 h, 10 µg/mL Anifrolumab
Method: as §2
PD-1, PD-L1, and PD-L2 expression was detected by Western blot. PD-L1 expression levels were partly shown above. Signalstrength was represented by symbols. -: undetected, +: weak, ++: expressed, +++: strong signals. Western blot and Immunofluorescent staining images are representative of 3 independent experiments with similar results. Cropped images are shown. Uncropped Western blot images are shown in Source Data.

[10] = system: HCC827 derived ER3, ER4A, ER4B, ER5; assay: AlamarBlue assay in HCC827-derived erlotinib-resistant lines; format: cell-based; conditions: 10 µg/mL Anifrolumab with erlotinib, 72 hours
Method: as §3, §4

[11] = EGFR mutant cell lines, 0.1 µM erlotinib 24 h, Etanercept 10 µg/mL

**Q.** How did the “effect on erlotinib-induced IRF3 transcriptional activity” value [1] turn out when `O=C(NCCCNc1nc(Nc2cccc(NC(=O)N3CCCC3)c2)ncc1I)c1cccs1` [BX-795] was run?
**A.** loss of erlotinib-induced IRF3 transcriptional activity

**Q.** What about the “effect on erlotinib-induced upregulation of IFN” value (from here on “effect … of IFN”) [2, 11] of the same molecule?
**A.** completely suppressed erlotinib-induced upregulation of IFN

**Q.** What about the “effect on EGFR inhibition-induced IRF3 phosphorylation” value [3] of the same molecule?
**A.** loss of EGFR inhibition-induced IRF3 phosphorylation

**Q.** What about the “combination with EGFR inhibition in cell viability assays” value ([4]; four EGFR mutant cell lines, 0.01 µM erlotinib and 1 µM BX795, 72 hours) of the same molecule?
**A.** synergized with EGFR inhibition

**Q.** With Etanercept as the molecule, how does the “effect … of IFN” value [2, 11] read?
**A.** failed to inhibit erlotinib induced upregulation of type I IFNs

**Q.** What about the “effect on TNF-induced activation of NF-κB” value [5] of the same molecule?
**A.** efficiently blocked TNF-induced activation of NF-κB

**Q.** What about the “effect on pro-survival effect of exogenous Type I IFNs under EGFR inhibition” value ([4]; 0.1 µM erlotinib) of the same molecule?
**A.** fails to block the pro-survival effects of IFNs

**Q.** For `Cc1ccc2nc(NCCN)c3ncc(C)n3c2c1` [BMS-345541], which “effect … of IFN” value ([2]; EGFRwt cell lines, 1 µM erlotinib 24 h) is on record?
**A.** blocks EGFR inhibition-induced upregulation of IFN

**Q.** What about the “effect on pro-survival effect of exogenous Type I IFNs under EGFR inhibition” value ([4]; 0.1 µM erlotinib) of the same molecule?
**A.** fail to abrogate the protective effect of type I IFNs

B1: IFNα: Recombinant human IFNα1, exogenous Type I interferon (protein, UniProt P01562 24-189, looked up)
Interferon alpha-1/13: CDLPETHSLDNRRTLMLLAQMSRISPSSCLMDRHDFGFPQEEFDGNQFQKAPAISVLHELIQQIFNLFTTKDSSAAWDEDLLDKFCTELYQQLNDLEACVMQEERVGETPLMNADSILAVKKYFRRITLYLTEKKYSPCAWEVVRAEIMRSLSLSTNLQERLRRKE
**Q.** With B1 as the molecule, how does the “protection from erlotinib-induced cell death” value ([4]; EGFR mutant cell lines, 0.1 µM erlotinib, IFNα1 or IFNβ1 50 ng/mL, 72 h) read?
**A.** protects NSCLC cells with mutant EGFR activating from cell death

B2: Anifrolumab: monoclonal antibody directed against IFNAR that inhibits the binding of Type I IFNs to its receptor (antibody, chains of the INN, looked up)
heavy: EVQLVQSGAEVKKPGESLKISCKGSGYIFTNYWIAWVRQMPGKGLESMGIIYPGDSDIRYSPSFQGQVTISADKSITTAYLQWSSLKASDTAMYYCARHDIEGFDYWGRGTLVTVSSASTKGPSVFPLAPSSKSTSGGTAALGCLVKDYFPEPVTVSWNSGALTSGVHTFPAVLQSSGLYSLSSVVTVPSSSLGTQTYICNVNHKPSNTKVDKRVEPKSCDKTHTCPPCPAPEFEGGPSVFLFPPKPKDTLMISRTPEVTCVVVDVSHEDPEVKFNWYVDGVEVHNAKTKPREEQYNSTYRVVSVLTVLHQDWLNGKEYKCKVSNKALPASIEKTISKAKGQPREPQVYTLPPSREEMTKNQVSLTCLVKGFYPSDIAVEWESNGQPENNYKTTPPVLDSDGSFFLYSKLTVDKSRWQQGNVFSCSVMHEALHNHYTQKSLSLSPG
light: EIVLTQSPGTLSLSPGERATLSCRASQSVSSSFFAWYQQKPGQAPRLLIYGASSRATGIPDRLSGSGSGTDFTLTITRLEPEDFAVYYCQQYDSSAITFGQGTRLEIKRTVAAPSVFIFPPSDEQLKSGTASVVCLLNNFYPREAKVQWKVDNALQSGNSQESVTEQDSKDSTYSLSSTLTLSKADYEKHKVYACEVTHQGLSSPVTKSFNRGEC
**Q.** Which sensitivity to afatinib [6] does the source give for B2 here?
**A.** rendered sensitive to afatinib

**Q.** What about the “effect on erlotinib induced activation of STAT1” value [7] of the same molecule?
**A.** blocks erlotinib induced activation of STAT1

**Q.** What about the “sensitivity to erlotinib (cell viability)” value ([8]; EGFRwt lines with Ros1 mutation, EML4/ALK fusion, Met amplification, Braf mutation, 10 µg/mL Anifrolumab) of the same molecule?
**A.** resulted in sensitivity to erlotinib

**Q.** What about the “sensitivity to erlotinib (cell viability)” value ([8]; resistant EGFRwt/KRas cell lines, 1 µM erlotinib with 10 µg/mL Anifrolumab) of the same molecule?
**A.** enhanced sensitivity to erlotinib

**Q.** What about the “effect on erlotinib-induced upregulation of PD-L1” value [9] of the same molecule?
**A.** abrogated

**Q.** What about the “sensitivity to erlotinib in secondary resistant lines” value [10] of the same molecule?
**A.** restore sensitivity to erlotinib
